Test results published in patent US11020358B2, “Method for the anti-senescence of and/or rejuvenating stem cells” (GWO XI STEM CELL APPLIED TECHNOLOGY CO., LTD., priority 2014, dated 2021).

Test system: Wister rats
Assay: Liver fibrosis rat model: biochemical functional indexes of cardiac blood
Format: in vivo
Details: 200 mg/kg TAA i.p. once every three days for 60 days, cardiac blood 4 days after last injection
Experimental: 200 mg/kg of thioacetamide (TAA) was intraperitoneally injected to 8-week-old male Wister rats (n=35) once every three days for 60 days (i.e., 20 injections in total) to obtain a liver fibrosis rat model (hereinafter referred to as the “TAA group” rat). Additionally, rats that injected with equal volume of normal saline but not TAA were served as a “control group” (n=12). At 4 days after the last injection, four rats in the “control group” and three rats in the “TAA group” were anesthetized with ether and analyzed by the following experiments.
The cardiac blood of the “control group” and “TAA group” rats was collected and measured by a biochemical analyzer (Roche, Integra 800) to analyze the biochemical functional indexes, and thereby, evaluating the extent of hepatic damage. The biochemical functional indexes include the expression level of glutamate oxaloacetate transaminase (GOT), the expression level of glutamate pyruvate transaminase (GPT), the expression level of albumin, the expression level of total bilirubin, and prothrombin time.

CC(=N)S [TAA, thioacetamide]
Albumin: 2.8 ± 0.4 g/dL | GOT: 546 ± 48 Units/L | GPT: 138 ± 47 Units/L | Prothrombin time: 16.4 ± 3.0 s | Total bilirubin: 0.049 ± 0.009 mg/dL
